These results are taken from patent publication US11111251B2, “Positive allosteric modulators of the muscarinic acetylcholine receptor M1” (Vanderbilt University, priority 2016, dated 2021).

The target in this test is T1, human mAChR M1 (Homo sapiens, UniProt P11229).
T1 sequence (P11229 1-460): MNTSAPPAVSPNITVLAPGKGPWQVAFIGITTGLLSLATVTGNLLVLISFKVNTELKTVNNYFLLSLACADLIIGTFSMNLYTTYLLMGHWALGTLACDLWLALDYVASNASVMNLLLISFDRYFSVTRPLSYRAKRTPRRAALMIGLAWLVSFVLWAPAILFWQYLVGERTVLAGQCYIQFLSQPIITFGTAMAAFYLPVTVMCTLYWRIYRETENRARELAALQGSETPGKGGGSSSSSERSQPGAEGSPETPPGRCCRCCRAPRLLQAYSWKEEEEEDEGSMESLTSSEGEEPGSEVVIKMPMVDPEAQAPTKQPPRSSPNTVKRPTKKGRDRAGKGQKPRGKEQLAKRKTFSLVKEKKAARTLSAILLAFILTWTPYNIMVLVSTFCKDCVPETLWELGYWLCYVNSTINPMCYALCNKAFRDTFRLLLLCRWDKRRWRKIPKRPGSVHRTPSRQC
Kind of test: mAChR M1 cell-based functional assay: calcium mobilization, positive allosteric modulator mode (increase in EC20 acetylcholine response). The following applies: for Emax: read-out: Human M1 Emax (%). From the text: a. Cell Lines Expressing Muscarinic Acetylcholine Receptors
Chinese hamster ovary (CHO-K1) cells stably expressing rat (r)M1 were purchased from the American Type Culture Collection and cultured according to their indicated protocol. CHO cells stably expressing human (h)M2, hM3, and hM5 were described previously (Levey, et al., 1991); hMi and hM4 cDNAs were purchased from Missouri S&T cDNA Resource; rM4 cDNA was provided by T. I. Bonner (National Institutes of Health, Bethesda, Md.). rM2 and rM3 were cloned from a rat brain cDNA library and sequence verified. hMi, rM2, rM3, hM4, and rM4 cDNAs were used to stably transfect CHO-K1 cells purchased from the American Type Culture Collection using Lipofectamine2000. To make stable rM2, hM2, rM3, hM4, and rM4 cell lines for use in calcium mobilization assays, these cells also were stably transfected with a chimeric G-protein (Gqi5) (provided by B. R. Conklin, University of California, San Francisco) using Lipofectamine 2000. rMi, hMi, rM3, hM3, rM5, and hM5 cells were grown in Ham's F-12 medium containing 10% heat-inactivated fetal bovine serum (FBS), 20 mM HEPES, and 50 μg/mL G418 sulfate. rM2-Gqi5, hM2-Gqi5, and hM4-Gqi5 cells were grown in the same medium also containing 500 μg/mL Hygromycin B. Stable rM4-Gqi5 cells were grown in DMEM containing 10% heat-inactivated FBS, 20 mM HEPES, 400 μg/mL G418 sulfate, and 500 μg/mL Hygromycin B.
b. Cell-Based Functional Assay of Muscarinic Acetylcholine Receptor Activity
For high throughput measurement of agonist-evoked increases in intracellular calcium, CHO-K1 cells stably expressing muscarinic receptors were plated in growth medium lacking G418 and hygromycin at 15,000 cells/20 μL/well in Greiner 384-well black-walled, tissue culture (TC)-treated, clear-bottom plates (VWR). Cells were incubated overnight at 37° C. and 5% CO2. The next day, cells were washed using an ELX 405 (BioTek) with four washes (80 μL) of assay buffer then aspirated to 20 μL. Next, 20 μL of 16 μM Fluo-4/acetoxymethyl ester (Invitrogen, Carlsbad, Calif.) prepared as a 2.3 mM stock in DMSO and mixed in a 1:1 ratio with 10% (w/v) Pluronic F-127 and diluted in assay buffer was added to the wells and the cell plates were incubated for 50 min at 37° C. and 5% CO2. Dye was removed by washing with the ELX 405 (four […], washes of assay buffer) then aspirated to 20 μL. Compound master plates were formatted in an 11 point CRC format (1:3 dilutions) in 100% DMSO with a starting concentration of 10 mM using the BRAVO liquid handler (Agilent). Test compound CRCs were then transferred to daughter plates (240 nL) using the Echo acoustic plate reformatter (Labcyte, Sunnyvale, Calif.) and then diluted into assay buffer (40 μL) to a 2× stock using a Thermo Fisher Combi (Thermo Fisher Scientific, Waltham, Mass.).
Calcium flux was measured using the Functional Drug Screening System (FDSS) 6000 (Hamamatsu Corporation, Tokyo, Japan) as an increase in the fluorescent static ratio. Compounds were applied to cells (20 μL, 2×) using the automated system of the FDSS 6000 at 4 s into the 300 s protocol and the data were collected at 1 Hz. At 144 s into the 300s protocol, 10 μL of an EC20 concentration of the muscarinic receptor agonist acetylcholine was added (5×), followed by the addition of 12 μL an EC80 concentration of acetylcholine at the 230 s time point (5×). Agonist activity was analyzed as a concentration-dependent increase in calcium mobilization upon compound addition. Positive allosteric modulator activity was analyzed as a concentration-dependent increase in the EC20 acetylcholine response. Antagonist activity was analyzed as a concentration-dependent decrease in the EC80 acetylcholine response. Concentration-response curves were generated using a four-parameter logistical equation in XLfit curve fitting software (IDBS, Bridgewater, N.J.) for Excel (Microsoft, Redmond, Wash.) or Prism (GraphPad Software, Inc., San Diego, Calif.).

Setting [1] is: Table 2, human M1, read-out: Human M1 EC50.

Like-named read-outs stand apart in the source and are kept apart here.

`Cc1nc(-c2ccc(Cc3cc(C(=O)N[C@@H]4CCOC[C@H]4O)nc4ccsc34)cc2)co1` [Compound 166, N-[(3S,4R)-3-hydroxytetrahydropyran-4-yl]-7-[[4-(2-methyloxazol-4-yl)phenyl]methyl]thieno[3,2-b]pyridine-5-carboxamide]: under setting [1], the EC50 came out at 16.8 nM. Besides, the Emax (Table 2, human M1) was 81.6%. The like results for `O=C(N[C@@H]1CCCC[C@H]1O)c1cc(Cc2ccc(-n3cccn3)cc2)c2sccc2n1` [Compound 73, N-[(1R,2R)-2-hydroxycyclohexyl]-7-[(4-pyrazol-1-ylphenyl)methyl]thieno[3,2-b]pyridine-5-carboxamide] were, in that order, 50.1 nM and 87.9%.

Regarding `COCCNC(=O)c1cc(Cc2ccc(-n3cccn3)cc2)c2sccc2n1` [Compound 429, N-(2-methoxyethyl)-7-[(4-pyrazol-1-ylphenyl)methyl]thieno[3,2-b]pyridine-5-carboxamide], under setting [1], the EC50 turned out to be 597 nM. Besides, the Emax (Table 2, human M1) turned out to be 72.7%. The like results for `CO[C@@H]1CCCC[C@H]1NC(=O)c1cc(Cc2ccc(-c3cn(C)nn3)cc2)c2sccc2n1` [Compound 156, N-[(1R,2R)-2-methoxycyclohexyl]-7-[[4-(1-methyltriazol-4-yl)phenyl]methyl]thieno[3,2-b]pyridine-5-carboxamide] were, in that order, 260 nM and 89.2%. With `Cn1ccc2nc(C(=O)N[C@H]3CC[C@@H]3O)cc(Cc3ccc(-c4cscn4)cc3)c21` [Compound 459, N-[(1S,2S)-2-hydroxycyclobutyl]-1-methyl-7-[(4-thiazol-4-ylphenyl)methyl]pyrrolo[3,2-b]pyridine-5-carboxamide], under setting [1], the half-maximal effective concentration (EC50) worked out at 108 nM. Moreover, the maximal effect (Emax) (Table 2, human M1) was 73.5%. On to `COC1CC(NC(=O)c2cc(Cc3ccc(-c4cscn4)cc3)c3sccc3n2)C1` (centres unmarked) [Compound 204, N-(3-methoxycyclobutyl)-7-[(4-thiazol-4-ylphenyl)methyl]thieno[3,2-b]pyridine-5-carboxamide], for which, under setting [1], the EC50 came out at 897 nM. The Emax (Table 2, human M1) stood at 83.5%.

For the compound `COCC(C)NC(=O)c1cc(Cc2ccc(-c3ccn(C)n3)nc2)c2sccc2n1` (centres unmarked) [Compound 424, N-(2-methoxy-1-methyl-ethyl)-7-[[6-(1-methylpyrazol-3-yl)-3-pyridyl]methyl]thieno[3,2-b]pyridine-5-carboxamide], the EC50 under setting [1] is 8470 nM. In addition, under “Table 2, human M1”, the Emax worked out at 68.6%. The like results for `Cc1nc(-c2ccc(Cc3cc(C(=O)N(C)C4CCOCC4)nc4ccsc34)cc2)cs1` [Compound 190] were, in that order, 6140 nM and 75.5%.

Regarding `Cn1cc(-c2ccc(Cc3cc(C(=O)N[C@@H]4CCOC[C@H]4O)nc4ccsc34)cc2)nn1` [Compound 153, N-[(3S,4R)-3-hydroxytetrahydropyran-4-yl]-7-[[4-(1-methyltriazol-4-yl)phenyl]methyl]thieno[3,2-b]pyridine-5-carboxamide], the EC50 under setting [1] worked out at 4.74 nM. In addition, under “Table 2, human M1”, the Emax was found to be 59.8%. Consider `Cc1ccc(Oc2cc(C(=O)N[C@H]3CCCCC[C@@H]3O)nc3ccsc23)cn1` [Compound 25, N-[(1S,2S)-2-hydroxycycloheptyl]-7-[(6-methyl-3-pyridyl)oxy]thieno[3,2-b]pyridine-5-carboxamide], for which the EC50 (Table 1, mAChR M1 cell-based functional assay, PAM mode, species not given, read-out: EC50) stood at 750 nM. In the case of `Cn1cc(-c2cc(F)c(Cc3cc(C(=O)N[C@H]4CCOC[C@@H]4O)nc4ccsc34)c(F)c2)cn1` [Compound 59, 7-[[2,6-difluoro-4-(1-methylpyrazol-4-yl)phenyl]methyl]-N-[(3R,4S)-3-hydroxytetrahydropyran-4-yl]thieno[3,2-b]pyridine-5-carboxamide], under setting [1], the EC50 came out at 2840 nM. Further, the Emax (Table 2, human M1) is 88.5%. As for `Cn1cc(-c2ccc(Cc3cc(C(=O)NC4CCOCC4(C)C)nc4ccsc34)cn2)cn1` (centres unmarked) [Compound 362, N-(3,3-dimethyltetrahydropyran-4-yl)-7-[[6-(1-methylpyrazol-4-yl)-3-pyridyl]methyl]thieno[3,2-b]pyridine-5-carboxamide], the EC50 under setting [1] worked out at 84.9 nM. The Emax (Table 2, human M1) is 72.4%. Regarding `CC1(C)CC(NC(=O)c2cc(Cc3ccc(-c4nccs4)cc3)c3sccc3n2)CCO1` (centres unmarked) [Compound 337], under setting [1], the EC50 turned out to be 852 nM. Further, the Emax (Table 2, human M1) amounted to 84.2%. The like results for `Cn1cc(-c2ccc(Cc3cc(C(=O)NCC4CCOCC4)nc4ccsc34)cn2)cn1` [Compound 334, 7-[[6-(1-methylpyrazol-4-yl)-3-pyridyl]methyl]-N-(tetrahydropyran-4-ylmethyl)thieno[3,2-b]pyridine-5-carboxamide] were, in that order, 103 nM and 83%. The like results for `Cc1ccc(Cc2cc(C(=O)NC3CCCCCC3(C)O)nc3ccsc23)cn1` (centres unmarked) [Compound 235, N-(2-hydroxy-2-methyl-cycloheptyl)-7-[(6-methyl-3-pyridyl)methyl]thieno[3,2-b]pyridine-5-carboxamide] were, in that order, 1010 nM and 71.1%. Take `Cc1nc(-c2ccc(Cc3cc(C(=O)NC4CCCCNC4=O)nc4ccsc34)cc2)co1` (centres unmarked) [Compound 172, 7-[[4-(2-methyloxazol-4-yl)phenyl]methyl]-N-(2-oxoazepan-3-yl)thieno[3,2-b]pyridine-5-carboxamide]: the EC50 under setting [1] amounted to 685 nM. Also, the Emax (Table 2, human M1) came to 88.8%. The like results for `Cc1ncc(Cc2cc(C(=O)N[C@@H]3CCCCC[C@H]3O)nc3ccsc23)cn1` [Compound 131, N-[(1R,2R)-2-hydroxycycloheptyl]-7-[(2-methylpyrimidin-5-yl)methyl]thieno[3,2-b]pyridine-5-carboxamide] were, in that order, 4650 nM and 83.4%. The like results for `O=C(c1cc(Cc2ccc(-n3cccn3)cc2)c2sccc2n1)N1CCNCC1` [Compound 83, piperazin-1-yl-[7-[(4-pyrazol-1-ylphenyl)methyl]thieno[3,2-b]pyridin-5-yl]methanone] were, in that order, above 10000 nM and 52.9%. The like results for `Cn1ccc2nc(C(=O)NCC3CCOCC3)cc(Cc3ccc(-c4cscn4)cc3)c21` [Compound 466, 1-methyl-N-(tetrahydropyran-4-ylmethyl)-7-[(4-thiazol-4-ylphenyl)methyl]pyrrolo[3,2-b]pyridine-5-carboxamide] were, in that order, 364 nM and 72.2%. On to `Cc1csc2c(Cc3ccc(-c4ccn(C)n4)cc3)cc(C(=O)N[C@H]3CCOC3)nc12` [Compound 306], for which the EC50 under setting [1] came out at 2920 nM. Moreover, for the setting “Table 2, human M1”, the Emax turned out to be 79.3%. Turning to `Cn1cc(-c2ccc(Cc3cc(C(=O)NC4CC5(COC5)C4)nc4ccsc34)cc2)nn1` [Compound 175, 7-[[4-(1-methyltriazol-4-yl)phenyl]methyl]-N-(2-oxaspiro[3.3]heptan-6-yl)thieno[3,2-b]pyridine-5-carboxamide], the EC50 under setting [1] was found to be 17.7 nM. Also, under “Table 2, human M1”, the Emax was found to be 84.3%.
